Measurements as given in patent US20080102111A1, “Anticancer Composition for Oral Use Comprising Liposome Containing Phytosterols and Prevention or Treatment for Cancer Using the Liposome” (priority 2005, published 2008).

System: B16BL6 melanoma cells
Assay: Metastasis-inhibiting activity in B16BL6 melanoma cells by the liposome compositions (lung colony count)
Format: in vivo, C57BL6/J mice
Conditions: lung surface colonies on 21st day; 0.2 mL oral once per day up to 6th day; B16BL6 cells i.v. 3×10^4/animal on 7th day
Experimental: Twenty 5-week old C57BL6/J mice were divided into four groups. The control group received 0.2 mL phosphate-buffered physiological saline (PBS) once per day by forced oral administration up to and including the 6th day of keeping. In like manner, the liposome composition of Example 1 was orally administered instead of the PBS to the group designated as the liposomized β-sitosterol group; an aqueous suspension of ordinary, unliposomized β-sitosterol (contained the same amount of β-sitosterol as the liposomized β-sitosterol administered to the liposomized β-sitosterol group) was orally administered instead of the PBS to the group designated as the β-sitosterol group; and the liposome composition of Comparative Example 1 was orally administered instead of the PBS to the group designated as the liposomized cholesterol group. B16BL6 melanoma cells suspended in serum-free medium were administered intravenously (3×10^4/0.2 ml/animal) on the 7th day of keeping. The mice were dissected on the 21st day of keeping and the lungs were extirpated; the lung surfaces were inspected and the number of colonies was counted.

CC[C@H](CC[C@@H](C)[C@H]1CC[C@H]2[C@@H]3CC=C4C[C@@H](O)CC[C@]4(C)[C@H]3CC[C@]12C)C(C)C [β-Sitosterol, β-sitosterol]
Average number of colonies: 43
